Source: publication PMC11784145, “Efficacy and in vitro pharmacological assessment of novel N-hydroxypyridinediones as hepatitis B virus ribonuclease H inhibitors” (Antimicrobial Agents and Chemotherapy, 2024)
Where two headings read alike, the source gives them in different places.

Columns and labels:
[1] = Microsome stability; type: in vitro ADME, human; settings: human liver microsomes; for Clearance (intrinsic clearance, Clint) / Half-life: 1 µM compound, 30 min, NADPH
[2] = system: HepDES19 cells; settings: read-out: HepDES19 CC50; 72 h, MTS; highest concentration tested 100 µM; mean ± SD
Description: HepDES19 cells were plated on 96-well tissue culture-treated plates (Greiner) at 1.0 × 10^4 cells per well and incubated for 48 h. Cells were treated with titrated concentrations of compound or 1% DMSO vehicle for 72 h, and cellular viability was measured by 3-(4,5-dimethylthiazol-2-yl)−5-(3-carboxymethoxyphenyl)−2-(4-sulfophenyl)−2H-tetrazolium (MTS) assays, as described previously ([20]). […] Three or more replicate assays were done on different days.

[3] = molecular target: T1, human ribonuclease H1 (huRNase H1) (Homo sapiens, UniProt O60930); experiment: Human RNase H1 inhibition, fluorescent biochemical assay
T1 construct: made in house; host or cells: Escherichia coli
T1 sequence (O60930 1-286): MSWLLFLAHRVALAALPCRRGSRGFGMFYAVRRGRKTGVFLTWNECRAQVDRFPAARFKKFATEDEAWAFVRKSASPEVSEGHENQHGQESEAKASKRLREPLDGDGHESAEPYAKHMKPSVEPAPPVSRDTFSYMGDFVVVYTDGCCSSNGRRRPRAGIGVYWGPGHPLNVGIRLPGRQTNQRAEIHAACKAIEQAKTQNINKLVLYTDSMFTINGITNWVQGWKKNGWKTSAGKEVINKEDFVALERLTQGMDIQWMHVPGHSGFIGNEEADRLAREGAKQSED

[4] = system: HBV replication (HBV plus-polarity DNA strand); experiment: HBV replication inhibition, strand preferential qPCR in hepDES19 cells; type: cell-based, hepatitis B virus; settings: for EC50: 72 h exposure
Description: HBV replication inhibition was measured in hepDES19 cells following 72 h compound exposure without compound replenishment. EC50 values were determined by HBV plus-polarity strand suppression using a strand preferential qPCR assay, as described previously ([28]). Three or more replicate values were obtained on different days.

[5] = Solubility limit, turbidimetric assay; type: physicochemical; settings: upper limit 200 µM
Description: Solubility limits were determined by a turbidimetric assay, as described ([27]), with the solubility limit being defined as the compound concentration where light scattering began to rise. Two or more replicate assays were performed for each compound at each pH on different days.

[6] = system: plasma proteins; experiment: Plasma protein binding, rapid equilibrium dialysis; type: in vitro ADME, bovine; settings: 10 µM compound, DMEM-F12 with 10% FBS (0.25 mg/mL BSA), 4 h, 37°C
Description: Plasma protein binding was performed using the Pierce rapid equilibrium dialysis device (Thermo Fisher) per the manufacturer’s instructions, as described ([27]). Briefly, the sample wells contained DMEM-F12 supplemented with 10% FBS spiked with 10 µM compound, and the buffer wells contained phosphate-buffered saline (PBS). The plate was incubated for 4 h at 37°C with shaking, after which 50 µL was retrieved from the buffer and sample wells and added to ice-cold acetonitrile and the internal standard described above. Samples were matrix-matched with PBS supplemented with 10% FBS or PBS alone, respectively, and centrifuged at 4,000 × g for 5 min to pellet plasma proteins. The supernatants were analyzed by LCMS/MS and percent compound bound was determined, as described previously ([27]).

[7] = system: MDCK-MDR1 cells; experiment: MDCK-MDR1 permeability assay; type: in vitro ADME; settings: 10 µM compound, 2 h; for Efflux Ratio (Papp B-A/A-B): MDCK-MDR1 cells, actively effluxed if >2
Description: MDCK-MDR1 cells were seeded on 96-well, high protein binding immobilon-P membrane plates (Millipore Sigma) at 2.4 × 10^4 cells per well for 4 days. Media were then decanted, and the cells were equilibrated with Hanks balanced salt solution (HBSS) supplemented with 10 mM CaCl2 and 1 mM MgCl2 for 1 h. Compound (10 µM) was then added to the apical side to assess active transport and to the basolateral side to assess active efflux. The cells were incubated with compound for 2 h with shaking at 37°C. Samples (50 µL) were retrieved from the recipient wells and mixed with 150 µL acetonitrile (ACN) and internal standard (1:1 of 200 ng/mL chloridazon:enalapril). Samples were pelleted at 4,000 × g and the supernatant was analyzed by liquid-chromatography/tandem mass spectrometry (LCMS/MS) analyses. […]. Active efflux was determined by Papp B/A/Papp A/B.
Tight junction formation was assessed by lucifer yellow permeation immediately following sample retrieval. Briefly, lucifer yellow (10 µM) was added to the apical wells and HBSS was added to the basolateral wells for 1 h with shaking at 37°C, after which sample was collected from the basolateral side and read on a Biotek Synergy HTX multi-mode plate reader with 485/20 excitation and 520/20 emission filters defined by the Center Wavelength/band-pass values. The percent lucifer yellow fluorescence was determined by subtracting the HBSS relative fluorescent units (RFU) from the sample RFU and normalizing to the lucifer yellow positive control RFU. Lucifer yellow permeation was determined to be acceptable if ≤3%.

[8] = Parallel artificial membrane permeability assay (PAMPA); type: in vitro ADME
Description: Compound Papp values were determined by normalizing the experimental compound absorbance to the compounds’ absorbances at equilibrium, membrane porosity, buffer volume, and time (s). Two or more replicate assays were obtained on separate days for each pH.

[9] = HBV plus-polarity strand suppression, highest concentration tested 100 µM, mean ± SD, read-out: HepDES19 EC50
[10] = read-out: EC50 against HBV replication
[11] = pH 5 (fed simulated intestinal fluid)
[12] = pH 6.5 (fasted simulated intestinal fluid)

| SMILES | Intrinsic clearance (Clint) rate category [1] | Clearance (intrinsic clearance, Clint) [1] [µL/min/mg] | Half-life [1] [min] | CC50 [2] [nM] | Selectivity of HBV replication inhibition over huRNase H1 (huRNase H1 IC50 versus HBV EC50) [3] | HepDES19 SI (CC50/EC50) [4] | EC50 [4, 9] [nM] | EC50 [4, 10] [nM] | Average Sol (solubility limit) [5, 11] [µM] | Sol 1 (solubility limit) ([5]; pH 5, replicate 1) [µM] | Sol 2 (solubility limit) ([5]; pH 5, replicate 2) [µM] | Average Sol (solubility limit) [5, 12] [µM] | Sol 1 (solubility limit) ([5]; pH 6.5, replicate 1) [µM] | Sol 2 (solubility limit) ([5]; pH 6.5, replicate 2) [µM] | Average Sol (solubility limit) ([5]; pH 7.4 (DMEM-F12 with 10% FBS)) [µM] | Sol 1 (solubility limit) ([5]; pH 7.4, replicate 1) [µM] | Sol 2 (solubility limit) ([5]; pH 7.4, replicate 2) [µM] | Percent bound [6] [%] | MDCK-MDR1 Papp category, apical to basolateral (A-B) [7] | MDCK-MDR1 Papp category, basolateral to apical (B-A) [7] | other results |
| --- | --- | --- | --- | --- | --- | --- | --- | --- | --- | --- | --- | --- | --- | --- | --- | --- | --- | --- | --- | --- | --- |
| CC(=NOCc1cccc(F)c1)c1c(C)cc(=O)n(O)c1O [Compound 1618] | low (low Clint (µL/min/mg protein) rates (<8.6)) | 5.71 | >30 | 73900 ± 28600 | at least 10 fold | 1,071 | 61 ± 10 | < 400 | > 200 | > 200 | > 200 | > 200 | > 200 | > 200 | > 200 | > 200 | > 200 | 93.5 ± 0.129 | low (low (<1*10^−6 cm/s)) | low (low (<1*10^−6 cm/s)) | Sol 3 (solubility limit) ([5]; pH 6.5, replicate 3): > 200 µM; Efflux Ratio (Papp B-A/A-B) [7]: 0.84; Avg Papp (PAMPA) ([8]; FeSSIF pH 5): 16.4 ×10⁻⁶ cm/s; Interpretation (PAMPA Papp) ([8]; FeSSIF pH 5): H (H: Papp > 1*10-6); Papp 1 (PAMPA) ([8]; FeSSIF pH 5, replicate 1): 15.4 ×10⁻⁶ cm/s; Papp 2 (PAMPA) ([8]; FeSSIF pH 5, replicate 2): 17.4 ×10⁻⁶ cm/s; Avg Papp (PAMPA) ([8]; pH 7.4): 0.489 ×10⁻⁶ cm/s; PAMPA apparent permeability (Papp) category ([8]; pH 7.4): low (low (<1 × 10^−6 cm/s)); Papp 1 (PAMPA) ([8]; pH 7.4, replicate 1): 0.395 ×10⁻⁶ cm/s; Papp 2 (PAMPA) ([8]; pH 7.4, replicate 2): 0.582 ×10⁻⁶ cm/s |
| CC(=NOCc1ccc(F)c(F)c1)c1c(C)cc(=O)n(O)c1O [Compound 1617] | medium (medium Clint rates (≥ 8.6 and ≤47)) | 45.7 | 23.0 | 72900 ± 37100 | at least 10 fold | 157 | 350 ± 193 | < 400 | > 200 | > 200 | > 200 | > 200 | > 200 | > 200 | > 200 | > 200 | > 200 | 100 ± 0.019 | low (low (<1*10^−6 cm/s)) | low (low (<1*10^−6 cm/s)) | Efflux Ratio (Papp B-A/A-B) [7]: 1.01; Avg Papp (PAMPA) ([8]; FeSSIF pH 5): 15.1 ×10⁻⁶ cm/s; Interpretation (PAMPA Papp) ([8]; FeSSIF pH 5): H (H: Papp > 1*10-6); Papp 1 (PAMPA) ([8]; FeSSIF pH 5, replicate 1): 4.04 ×10⁻⁶ cm/s; Papp 2 (PAMPA) ([8]; FeSSIF pH 5, replicate 2): 26.1 ×10⁻⁶ cm/s; Avg Papp (PAMPA) ([8]; pH 7.4): 0.95 ×10⁻⁶ cm/s; PAMPA apparent permeability (Papp) category ([8]; pH 7.4): low (low (<1 × 10^−6 cm/s)); Papp 1 (PAMPA) ([8]; pH 7.4, replicate 1): 1.46 ×10⁻⁶ cm/s; Papp 2 (PAMPA) ([8]; pH 7.4, replicate 2): 0.478 ×10⁻⁶ cm/s; Papp 3 (PAMPA) ([8]; pH 7.4, replicate 3): 0.911 ×10⁻⁶ cm/s |
